# Reference: patent publication US9170261B2, “Peptide specific for ovarian cancer and applications” (National Tsing Hua University, priority 2013, dated 2015)
# Key:
# [1] = system: BG1 ovarian cancer cell line; experiment: Binding activity (connectivity) of peptide-conjugated magnetic beads to cancer cells; parameters: species or system Human; settings: 10 ng/mL peptide
# Method: Human ovarian cancer cell line, BG1, was used. BG1 was cultured in DMEM/F12 medium containing 10% Fetal Bovine Serum (FBS). Other conditions of the culture are 37° C. and 5% CO2 in moisture atmosphere.
# (§1) 10 ng/mL of the peptide SEQ ID NO:1 of the present invention was used to examine the binding activity to different cancer cells, including pancreatic cancer cell line (BxPC3), colon cancer cell line (HCT8), cervical cancer cell line (HeLa), and liver cancer cell line (HepG2).
# [2] = system: cervical cancer cell line (HeLa); experiment: as above; settings: 10 ng/mL peptide
# Method: (§2) Other cell lines were used in the embodiments of the present invention including pancreatic cancer cell line (BxPC3), colon cancer cell line (HCT8), cervical cancer cell line (HeLa), and liver cancer cell line (HepG2).
# as §1
# [3] = system: colon cancer cell line (HCT8); experiment: as above; settings: 10 ng/mL peptide
# Method: as §2, §1
# [4] = system: liver cancer cell line (HepG2); experiment: as above; settings: 10 ng/mL peptide
# Method: as §2, §1
# [5] = system: pancreatic cancer cell line (BxPC3); experiment: as above; settings: 10 ng/mL peptide
# Method: as §2, §1
# [6] = system: ovarian cancer cells; experiment: Capturing test with peptide-conjugated magnetic beads, microscopic observation; assay type: binding; settings: 10^5 ovarian cancer cells
# Method: (A) magnetic beads without peptide conjugation; (B) magnetic beads conjugated to 10 μg/mL of peptide; (C) magnetic beads conjugated to 10 ng/mL of peptide; (D) magnetic beads conjugated to 10 ρg/mL of peptide.
# Different concentrations of the peptide of the present invention were conjugated to magnetic beads, wherein said concentrations are 10 μg/mL, 10 ng/mL, and 10 ρg/mL. The capturing test was performed using 10^5 ovarian cancer cells.
# [7] = system: other cancer cells; experiment: Binding activity to other cancer cells (average over non-ovarian lines)
# Method: as §1
substance,measurement,setting,value
N′-MPHPTKNFDLYV-C′ [peptide of the present invention],Connectivity (%),[1],about 80%
same,Connectivity (%),[1]; listed as peptide,more than 80%
same,Connectivity (%),[1]; listed as peptide of present invention,80.38 ± 2.69%
same,Connectivity (%),[2],26.02 ± 2.01%
same,Connectivity (%),[3],22.37 ± 1.89%
same,Connectivity (%),[4],15.77 ± 5.25%
same,Connectivity (%),[5],12.89 ± 0.21%
same,connection to ovarian cancer cells under microscopic observation,"[6]; peptide 10 μg/mL, 10 ng/mL and 10 ρg/mL conjugated to magnetic beads",able to connect to ovarian cancer cells
same,peptide concentration required to efficiently capture ovarian cancer cells,[6]; peptide conjugated to magnetic beads,10 ρg/mL
same,average connectivity to other cancer cells,"[7]; 10 ng/mL peptide, average of non-ovarian cancer cell lines",about 20%
same,binding activity to other cancers,"[7]; pancreatic, colorectal, cervical or liver cancer",negligible binding activity
